Our source for the inhibition and IC50 values is ChEMBL document CHEMBL3797024, “Exploring new chemical functionalities to improve aromatase inhibition of steroids” (Bioorg Med Chem, 2016).

pIC50: −log10 of the molar value.

Assay [1] concerns the target T1, Aromatase (Homo sapiens, UniProt P11511).
T1 sequence (P11511 whole entry): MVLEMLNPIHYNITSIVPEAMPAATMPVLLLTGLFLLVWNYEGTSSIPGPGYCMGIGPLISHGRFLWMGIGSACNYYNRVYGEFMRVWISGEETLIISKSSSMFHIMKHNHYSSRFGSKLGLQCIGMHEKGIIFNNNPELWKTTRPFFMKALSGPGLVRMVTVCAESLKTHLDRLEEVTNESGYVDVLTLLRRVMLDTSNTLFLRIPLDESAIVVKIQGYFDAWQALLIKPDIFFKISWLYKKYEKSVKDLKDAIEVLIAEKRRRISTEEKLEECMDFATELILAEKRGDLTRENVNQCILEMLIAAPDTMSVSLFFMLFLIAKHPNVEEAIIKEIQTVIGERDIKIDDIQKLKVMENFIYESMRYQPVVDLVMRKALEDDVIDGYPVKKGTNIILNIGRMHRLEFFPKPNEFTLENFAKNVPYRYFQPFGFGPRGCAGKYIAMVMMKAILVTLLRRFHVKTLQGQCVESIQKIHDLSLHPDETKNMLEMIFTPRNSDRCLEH
In words: Inhibition of human placental aromatase expressed in human MCF7 cells using [1beta-3H]-androstenedione as substrate assessed as tritiated H2O release at 10 uM after 1 hr by liquid scintillation counting method in presence of progesterone relative to control. The format is cell-based.

Assay [2] concerns the target T1, Aromatase. The experiment in a line: Inhibition of aromatase in human placental microsomes using [1beta-3H]-androstenedione as substrate assessed as tritiated H2O release at 2 uM after 15 mins by liquid scintillation counting method relative to control. Further details: species or system Placenta. The following applies: 0.25 h.
Assay [3] has as its target T1, Aromatase. In words: Inhibition of aromatase in human placental microsomes using [1beta-3H]-androstenedione as substrate assessed as tritiated H2O release after 15 mins by liquid scintillation counting method. Further details: species or system Placenta.
Assay [4] deals with T1, Aromatase. In words: Inhibition of human placental aromatase expressed in human MCF7 cells using [1beta-3H]-androstenedione as substrate at 1 uM after 1 hr by liquid scintillation counting method in presence of progesterone relative to control. In kind it is cell-based.
The target in assay [5] is T1, Aromatase. The experiment in a line: Inhibition of aromatase in human placental microsomes using [1beta-3H]-androstenedione as substrate assessed as tritiated H2O release at 0.5 uM after 15 mins by liquid scintillation counting method relative to control. Further details: species or system Placenta. The note with it: 0.25 h.

What is called inhibition is the percentage by which the read-out fell short of the control. Consider `C[C@]12CCC=C[C@@H]1CC[C@@H]1[C@@H]2CC[C@]2(C)C(=O)CC[C@@H]12`, for which the inhibition at 10 µM at Aromatase [1] amounted to 56.9%.
The same measure, in the same setting: then `C[C@]12CC[C@H]3O[C@H]3[C@@H]1CC[C@@H]1[C@@H]2CC[C@]2(C)C(=O)CC[C@@H]12`, with 80.4%.
In the case of `C[C@]12CCCC=C1CC[C@@H]1[C@@H]2CC[C@]2(C)C(=O)CC[C@@H]12`, on Aromatase [1], the inhibition at 10 µM turned out to be 62.6%.
As to `C[C@]12CC[C@H]3[C@@H](CC[C@@]45O[C@@H]4CCC[C@]35C)[C@@H]1CCC2=O`, on Aromatase [1], the inhibition at 10 µM stood at 53.2%.
Turning to `C=CC[C@@H]1CC2=CC(=O)C=C[C@]2(C)[C@H]2CC[C@]3(C)C(=O)CC[C@H]3[C@H]12`, the inhibition at 10 µM at Aromatase [1] came to 94.2%. The inhibition at 2 µM on Aromatase [2] was found to be 94.5%.
Turning to `C[C@]12C=CC(=O)C=C1C[C@@H](CC1CO1)[C@@H]1[C@@H]2CC[C@]2(C)C(=O)CC[C@@H]12` (some centres undefined), on Aromatase [1], the inhibition at 10 µM is 72.3%. Besides, the inhibition at 2 µM at Aromatase [2] came to 76.3%.
A word on the pIC50: it is the IC50 on a negative log10 scale, so that one unit is a factor of ten. Take `C[C@]12CC[C@H]3C[C@H]3[C@@H]1CC[C@@H]1[C@@H]2CC[C@]2(C)C(=O)CC[C@@H]12`: the inhibition at 10 µM on Aromatase [1] was determined as 89.3%. Also, the inhibition at 2 µM at Aromatase [2] stood at 95.3%. The negative logarithm of the IC50 (pIC50) on Aromatase [3] was 6.96.
With `C[C@]12CCC(=O)C=C1CC[C@@H]1C2=CC[C@]2(C)C(=O)CC[C@@H]12`, the inhibition at 10 µM at Aromatase [1] turned out to be 96.4%. In addition, the inhibition at 2 µM on Aromatase [2] was determined as 95.2%.
For `C[C@]12CC[C@H]3[C@@H](CC[C@]45O[C@H]4CCC[C@]35C)[C@@H]1CCC2=O`, on Aromatase [1], the inhibition at 10 µM was 64.8%. On Aromatase [2], the inhibition at 2 µM was 85.5%. The pIC50 at Aromatase [3] is 6.28.
On to `C[C@]12CCC3=C(OCCO3)C1=CC[C@@H]1[C@@H]2CC[C@]2(C)C(=O)CC[C@@H]12`, for which the inhibition at 2 µM on Aromatase [2] came to 55.9%.
Consider `C[C@]12CCC(=O)C(O)=C1CC[C@@H]1[C@@H]2CC[C@]2(C)C(=O)CC[C@@H]12` [FORMESTANE], for which the inhibition at 1 µM at Aromatase [4] stood at 96.1%. Further, at Aromatase [5], the inhibition at 0.5 µM is 99.2%.
